From US8859541B2, “6-alkynylpyridines” (Boehringer Ingelheim International GmbH, priority 2012, dated 2014)

What follows are compounds tested against T1, XIAP BIR3 (Homo sapiens, UniProt P98170) (assay: XIAP BIR3 binding assay (DELFIA), displacement of SMAC peptide). Settings: GST-fusion BIR3 domain (aa 241 to 356) 10 nM, SMAC peptide 10 nM; activity of the (S)-isomers.
T1 construct: covering amino acids 241 to 356; XIAP BIR3; made in house; host or cells: E. coli
T1 sequence (P98170 241-356): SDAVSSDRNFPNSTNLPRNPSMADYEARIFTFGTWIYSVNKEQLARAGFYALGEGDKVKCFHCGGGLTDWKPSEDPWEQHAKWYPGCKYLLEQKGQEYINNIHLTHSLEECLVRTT
Method in brief: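 Each BIR3 domain (10 nM) incubated with biotinylated N-terminal SMAC peptide (10 nM) and compound for 1 h at room temp in Tris/NaCl buffer with BSA, DTT and Triton X-100. Captured on streptavidin plates; bound BIR3 detected by Eu-labelled anti-GST time-resolved fluorescence, giving IC50 values.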
With `CNC(C)C(=O)Nc1ccc(-c2cncnc2)c(C#Cc2ccc3oc4ccccc4c3c2)n1` (stereo not shown) [Example 20, N-[6-(2-dibenzofuran-2-yl-ethynyl)-5-pyrimidin-5-ylpyridin-2-yl]-2-(methyl-amino)propanamide] the IC50 was 4280 nM. Work on `CC(N)C(=O)Nc1cccc(C#CCc2ccccc2)n1` (stereo not shown) [Example 224, 2-amino-N-[6-(3-phenylprop-1-ynyl)pyridin-2-yl]propanamide] yielded an IC50 of 3560 nM. Compound `CNC(C)C(=O)Nc1ccc(-c2cccc(-c3ccccc3)c2)c(C#Cc2ccccc2)n1` (stereo not shown) [Example 150, 2-(methylamino)-N-[6-(2-phenyl-ethynyl)-5-(3-phenylphenyl)-pyridin-2-yl]propanamide] has an IC50 of 2450 nM. `CNC(C)C(=O)Nc1ccc(-c2cncnc2)c(C#Cc2ccc(-c3ccccn3)s2)n1` (stereo not shown) [Example 8, 2-(methylamino)-N-[6-[2-(5-pyridin-2-ylthiophen-2-yl)-ethynyl]-5-pyrimidin-5-ylpyridin-2-yl]propanamide] was tested, and the IC50 was 351 nM. `CNC(C)C(=O)Nc1ccc(-c2c(C)nc3ccccn23)c(C#Cc2ccc3c(Cl)nccc3c2)n1` (stereo not shown) [Example 43, N-[6-[2-(1-chloroisoquinolin-6-yl)ethynyl]-5-(2-methyl-imidazo[1,2-a]pyridin-3-yl)-pyridin-2-yl]-2-(methylamino)-propanamide] showed an IC50 of 310 nM. `CNC(C)C(=O)Nc1ccc(-c2cncnc2C(C)C)c(C#Cc2ccc3ccccc3c2)n1` (stereo not shown) [Example 159, 2-(methylamino)-N-[6-(2-naphthalen-2-ylethynyl)-5-(4-propan-2-ylpyrimidin-5-yl)-pyridin-2-yl]propanamide] was tested, and the IC50 was 767 nM. With `CNC(C)C(=O)Nc1ccc(-c2cncnc2)c(C#Cc2ccc3ccccc3n2)n1` (stereo not shown) [Example 9, 2-(methylamino)-N-[5-pyrimidin-5-yl-6-(2-quinolin-2-ylethynyl)pyridin-2-yl]-propanamide] the IC50 was 1010 nM. `CNC(C)C(=O)Nc1ccc(-c2ccc(F)nc2)c(C#Cc2ccccc2)n1` (stereo not shown) [Example 146, N-[5-(6-fluoropyridin-3-yl)-6-(2-phenylethynyl)pyridin-2-yl]-2-(methylamino)propanamide] showed an IC50 of 257 nM. For `CNC(C)C(=O)Nc1cc(OC)c(-c2cncnc2)c(C#Cc2ccccc2)n1` (stereo not shown) [Example 199, N-[4-methoxy-6-(2-phenyl-ethynyl)-5-pyrimidin-5-ylpyridin-2-yl]-2-(methyl-amino)propanamide], the IC50 was 268 nM. For `CNC(C)C(=O)Nc1ccc(N(C)C(=O)c2ccccc2)c(C#Cc2ccccc2)n1` (stereo not shown) [Example 247, N-methyl-N-[6-[[2-(methyl-amino)propanoyl]amino]-2-(2-phenylethynyl)pyridin-3-yl]-benzamide], the IC50 was 745 nM. `CNC(C)C(=O)Nc1ccc(-c2cnoc2C)c(C#Cc2ccccc2)n1` (stereo not shown) [Example 188, 2-(methylamino)-N-[5-(5-methyl-1,2-oxazol-4-yl)-6-(2-phenyl-ethynyl)pyridin-2-yl]propanamide] was tested, and the IC50 was 128 nM. Work on `COc1cccc(C#Cc2cccc(NC(=O)C(C)N)n2)c1` (stereo not shown) [Example 220, 2-amino-N-[6-[2-(3-methoxyphenyl)ethynyl]pyridin-2-yl]propanamide] yielded an IC50 of 2160 nM. For `CC(N)C(=O)Nc1ccc(-c2ccc(-c3ccc(F)cc3)nc2)c(C#Cc2ccccc2)n1` (stereo not shown) [Example 112, 2-amino-N-[5-[6-(4-fluorophenyl)pyridin-3-yl]-6-(2-phenylethynyl)pyridin-2-yl]-propanamide], the IC50 was 1070 nM. In the case of `CNC(C)C(=O)Nc1ccc(-c2c(C)nc3ccccn23)c(C#Cc2ccc3c(=O)n(C)ccc3c2)n1` (stereo not shown) [Example 32, 2-(methylamino)-N-[5-(2-methylimidazo[1,2-a]pyridin-3-yl)-6-[2-(2-methyl-1-oxoisoquinolin-6-yl)ethynyl]-pyridin-2-yl]propanamide], the IC50 is reported as 228 nM. For `CNC(C)C(=O)Nc1ccc(-c2ccccc2Cl)c(C#Cc2ccccc2)n1` (stereo not shown) [Example 116, N-[5-(2-chlorophenyl)-6-(2-phenylethynyl)pyridin-2-yl]-2-(methylamino)propanamide], the IC50 was 1770 nM. For `CNC(C)C(=O)Nc1ccc(-c2cccc3[nH]ncc23)c(C#Cc2ccccc2)n1` (stereo not shown) [Example 137, N-[5-(1H-indazol-4-yl)-6-(2-phenylethynyl)pyridin-2-yl]-2-(methylamino)propanamide], the IC50 was 155 nM. Compound `CNC(C)C(=O)Nc1ccc(-c2cncc(C(=O)O)c2)c(C#Cc2ccccc2)n1` (stereo not shown) [Example 120, 5-[6-[[2-(methylamino)-propanoyl]amino]-2-(2-phenyl-ethynyl)pyridin-3-yl]pyridine-3-carboxylic acid] has an IC50 of 185 nM. `CNC(C)C(=O)Nc1ccc(-c2ccc(C)c(C(=O)OC)c2)c(C#Cc2ccccc2)n1` (stereo not shown) [Example 134, methyl 2-methyl-5-[6-[[2-(methylamino)propanoyl]amino]-2-(2-phenylethynyl)pyridin-3-yl]-benzoate] gave an IC50 of 581 nM. Compound `Cc1cccc(C)c1-c1ccc(NC(=O)C(C)N)nc1C#Cc1ccccc1` (stereo not shown) [Example 104, 2-amino-N-[5-(2,6-dimethyl-phenyl)-6-(2-phenylethynyl)-pyridin-2-yl]propanamide] has an IC50 of 2020 nM. Compound `CNC(C)C(=O)Nc1ccc(-c2c(C)nc3ccccn23)c(C#Cc2ccc3cc(F)ccc3c2)n1` (stereo not shown) [Example 51, N-[6-[2-(6-fluoronaphthalen-2-yl)ethynyl]-5-(2-methyl-imidazo[1,2-a]pyridin-3-yl)-pyridin-2-yl]-2-(methylamino)-propanamide] has an IC50 of 453 nM. `CNC(C)C(=O)Nc1ccc(-c2cncnc2)c(C#Cc2ccc3[nH]c(C)nc3c2)n1` (stereo not shown) [Example 7, 2-(methylamino)-N-[6-[2-(2-methyl-1H-benzimidazol-5-yl)ethynyl]-5-pyrimidin-5-ylpyridin-2-yl]propanamide] was tested, and the IC50 was 460 nM. `CC(N)C(=O)Nc1ccc(-c2cccc(C(=O)O)c2)c(C#Cc2ccccc2)n1` (stereo not shown) [Example 99, 3-[6-(2-aminopropanoylamino)-2-(2-phenylethynyl)pyridin-3-yl]-benzoic acid] gave an IC50 of 521 nM. In the case of `Cc1noc(C)c1-c1ccc(NC(=O)C(C)NC(C)C)nc1C#Cc1ccccc1` (stereo not shown) [Example 171, N-[5-(3,5-dimethyl-1,2-oxazol-4-yl)-6-(2-phenylethynyl)pyridin-2-yl]-2-(propan-2-ylamino)propanamide], the IC50 is reported as 1030 nM. With `CC(N)C(=O)Nc1cccc(C#Cc2ccccc2Cl)n1` (stereo not shown) [Example 222, 2-amino-N-[6-[2-(2-chlorophenyl)ethynyl]pyridin-2-yl]propanamide] the IC50 was 1420 nM. For `CC(N)C(=O)Nc1ccc(-c2ccccc2C(F)(F)F)c(C#Cc2ccccc2)n1` (stereo not shown) [Example 110, 2-amino-N-[6-(2-phenylethynyl)-5-[2-(trifluoromethyl)phenyl]-pyridin-2-yl]propanamide], the IC50 was 3190 nM. In the case of `CNC(C)C(=O)Nc1ccc(-c2cscc2-c2ccncc2)c(C#Cc2ccccc2)n1` (stereo not shown) [Example 180, 2-(methylamino)-N-[6-(2-phenyl-ethynyl)-5-(4-pyridin-4-ylthiophen-3-yl)pyridin-2-yl]-propanamide], the IC50 is reported as 260 nM. `CNC(C)C(=O)Nc1ccc(-c2c(C)nn(C)c2C)c(C#Cc2ccc3cnccc3c2)n1` (stereo not shown) [Example 164, N-[6-(2-isoquinolin-6-ylethynyl)-5-(1,3,5-trimethylpyrazol-4-yl)-pyridin-2-yl]-2-(methylamino)-propanamide] showed an IC50 of 335 nM. `CNC(C)C(=O)Nc1ccc(-c2c(C)ncn2Cc2ccccc2)c(C#Cc2ccccc2)n1` (stereo not shown) [Example 196, N-[5-(3-benzyl-5-methylimidazol-4-yl)-6-(2-phenylethynyl)pyridin-2-yl]-2-(methylamino)propan-amide] showed an IC50 of 609 nM.
